We go through two substances from publication PMC10122656, “Siglec-6 mediates the uptake of extracellular vesicles through a noncanonical glycolipid binding pocket” (Nature Communications, 2023).

One assay addresses T1, WT Siglec-1 CHO cells (Homo sapiens, UniProt Q9BZZ2).
T1 construct: expressed in transfected cells
Put plainly: Cell assay (liposome/EV binding, flow cytometry). Set-up: GM1 liposome binding to Siglec-1 CHO cells, flow cytometry (Fig. 1b) / Binding of liposomes with increasing ganglioside content against Siglec-1 CHO cells (Fig. 1c) / Liposome binding to Siglec-1-expressing CHO cells in the cell assay (Fig. 1f): unit not given here. The following applies: for Binding of liposomes with increasing ganglioside content against Siglec-1 CHO cells (Fig. 1c) / Liposome binding to Siglec-1-expressing CHO cells in the cell assay (Fig. 1f) / log10(MFI AF647) of GLL relative to log10(MFI AF647) of the same GLL against UT CHO cells (Fig. 2a): replicates; for GM1 liposome binding to Siglec-1 CHO cells, flow cytometry (Fig. 1b): 3 mol% GM1 liposomes, technical replicates; for log10(MFI AF647) of GLL relative to log10(MFI AF647) of the same GLL against UT CHO cells (Fig. 2a): Sig-1 WT, 3 mol% ganglioside liposomes; for ganglioside content threshold above which GLL binding to Siglec-1 CHO cells decreased: ganglioside titrated in GLLs. It is filed as cell-based. Here is the method:
(§1) Stock lipids (DSPC, Cholesterol, PEG45–DSPE) solutions were prepared by solvating the lipids in chloroform. An appropriate volume of each lipid solution was transferred to a glass test tube to reach the desired mol% of the component. The chloroform was then removed under N2 gas to yield a lipid thin film. Once dry, 100 µL of DMSO was added to the lipid-containing test tube and then the functional lipids (ganglioside, AF647–PEG45–DSPE, Siglec ligand–PEG45–DSPE, pHrodo–PEG45–DSPE, NGL) was added from their respect DMSO stock solution. The lipid mixture was then stored at −80 °C until completely frozen at which point excess DMSO was removed via lyophilization. Dry lipids were then stored at −80 °C until they were extruded. Lipid suppliers can be found in Supplementary Table 4.
(§2) Dry lipids were then hydrated in 1 mL of PBS. The lipids were then sonicated in a bath sonicator in a cycle of 1 min on, 5 min off for a total of five cycles. Liposomes were then extruded using an Avanti mini extruder first using an 800 nm filter and then a 100 nm filter yielding liposomes that were 130 ± 35 nm (Supplementary Table 5) measured using a Malvern Panalytical Zetasizer Nano S. Liposomes were stored at 4 °C.
(§3) 200,000 cells/well were plated into a 96-well U-bottom microplate and centrifuged at 300 × g for 5 min. The cells were then resuspended in 50 µL of 50 µM liposome/50 µg/mL (protein concentration) of EV solution in DMEM F12 5% FBS and incubated at 37 °C for 30 min. Excess liposomes were then removed via centrifuged at 300 × g for 5 min followed by washing the cells with FACS solution. The cells were then resuspended in (1:250 V/V) anti-Siglec-flow buffer (1% V/V FBS, 500 µM, EDTA Hank’s Balanced Salt Solution pH 7.4), solution and left to rest on ice for 30 min. The cells were then centrifuged again at 300 × g for 5 min and the cells were resuspended in FACS buffer solution and were then ready for analysis by flow cytometry. Information regarding antibody clone, catalog number supplier, label isotype, and dilution can be found in Supplementary Table 6. The Siglec-positive cells were gated on for liposome-binding analysis (Supplementary Fig. 1b).
(§4) Flow cytometry measurements were collected on a 5-laser Fortessa X-20 (BD Bioscience). All the resulting data were analyzed using FlowJo (10.5.3) software (BD Biosciences).
Background: A flow cytometer gives signals particle by particle.

Assay [1] relates to untransfected (UT) CHO cells. The experiment in a line: Cell assay (liposome/EV binding, flow cytometry). It counts as cell-based, Chinese Hamster. The following applies: UT; 3 mol% ganglioside liposomes; replicates. The protocol: as §1, §2, §3, §4
The target in the next assay is T2, Siglec-7-Fc WT (Homo sapiens, UniProt Q9Y286).
T2 construct: the Siglecs as Fc chimeras; made in house; host or cells: WT CHO cells
T2 sequence (Q9Y286 19-353 limits assumed): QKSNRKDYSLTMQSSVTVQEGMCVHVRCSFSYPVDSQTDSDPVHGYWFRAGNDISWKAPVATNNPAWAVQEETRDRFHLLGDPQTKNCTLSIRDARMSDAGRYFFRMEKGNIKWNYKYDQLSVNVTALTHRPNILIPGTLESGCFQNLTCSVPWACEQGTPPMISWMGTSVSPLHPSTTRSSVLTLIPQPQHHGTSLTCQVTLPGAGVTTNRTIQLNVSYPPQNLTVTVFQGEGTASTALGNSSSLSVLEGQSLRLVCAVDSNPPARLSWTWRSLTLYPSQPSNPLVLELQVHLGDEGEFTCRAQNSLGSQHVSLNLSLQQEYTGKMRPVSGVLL
The experiment in a line: Ganglioside ELISA. To be noted: Figure 2c, replicates. It is filed as binding. The protocol:
(§5) Siglec-Fc constructs designed by Rodrigues et al.[30] were used in this work. Siglec-Fc constructs were expressed using WT CHO cells in cell culture media as described above with 1% HEPES. Cells incubated as described above for one-week post confluency. The supernatant was harvested and stored at 4 °C.
(§6) The purification was heavily inspired by Rodrigues et al.[30]. The purification of the Siglec-Fcs from supernatant began with Ni^2+ affinity chromatography using an AKTA FPLC equipped with a HisTrap Excel column (GE). The column was equilibrated with fifteen column volumes (CVs) of equilibrium buffer (500 mM NaCl, 20 mM NaPO4H2, pH 7.4). The Siglec-Fc containing supernatant was then loaded in its entirety onto the column. The column was then washed with fifteen CVs of wash buffer (500 mM NaCl, 30 mM imidazole, 20 mM NaPO4H2, pH 7.4). The Siglec-Fc was then eluted in 20 in 1 mL fractions with twenty CVs of elution buffer (500 mM NaCl, 500 mM imidazole, 20 mM NaPO4H2, pH 7.4). Fractions containing Siglec-Fc were compiled and then prepared for the next stage of purification by diluting the fractions 1:4 with buffer W (100 mM Tris–HCl, 150 mM NaCl, 1 mM EDTA, pH 8.0). A Strep-Tactin column (IBA life sciences) was washed with fifteen CVs of buffer W. The Siglec-Fc-buffer W solution was then loaded in its entirety onto the column. The bound Siglec-Fc was then washed with fifteen CVs of buffer W. Siglec-Fc was eluted from the column with 15 column volumes of buffer E (100 mM Tris–HCl, 150 mM NaCl, 1 mM EDTA, 10 mM d-Desthiobiotin, pH 8.0). Fractions containing Siglec-Fc were pooled and dialyzed against PBS to remove any d-Desthiobiotin. After dialysis, Siglec-Fcs were concentrated using an ultra-centrifugal device (30 kDa MWCO) and aliquoted into 5 µg aliquots, and frozen. The Siglec-Fcs were then lyophilized overnight, and the lyophilized Siglec-Fcs were stored at −20 °C.
(§7) Our ELISA approach was carried out similarly to previous work by Rapoport[12] and Yamakawa[44]. Ganglioside ethanol solutions (10 µM) were prepared and then transferred in 50 µL increments to a 96-well microplate. The ethanol was removed by drying the plates overnight at room temperature. The plates were then washed with PBS, dried, and then blocked with 5% (m/V) BSA PBS for 1 h. The plates were then washed with PBS and then 2 µg/mL Siglec-Fc precomplexed to Strep-Tactin (2 Siglec-Fc:1 Strep-Tactin monomer) horse radish peroxidase was added to the microplate. The complex was incubated with the plate at room temperature for 2 h. The unbound complexes were then removed by washing in PBS and the plate was developed with Sera care TMB solution. The amount of binding was then quantified by using the background (microplate well with no ligand) subtracted absorbance at 450 nm using a Molecular Devices SpectraMAX ® iD5.

Another assay deals with T3, Siglec-6-Fc WT (Homo sapiens, UniProt O43699).
T3 construct: the Siglecs as Fc chimeras; made in house; host or cells: WT CHO cells
T3 sequence (O43699 27-347 limits assumed): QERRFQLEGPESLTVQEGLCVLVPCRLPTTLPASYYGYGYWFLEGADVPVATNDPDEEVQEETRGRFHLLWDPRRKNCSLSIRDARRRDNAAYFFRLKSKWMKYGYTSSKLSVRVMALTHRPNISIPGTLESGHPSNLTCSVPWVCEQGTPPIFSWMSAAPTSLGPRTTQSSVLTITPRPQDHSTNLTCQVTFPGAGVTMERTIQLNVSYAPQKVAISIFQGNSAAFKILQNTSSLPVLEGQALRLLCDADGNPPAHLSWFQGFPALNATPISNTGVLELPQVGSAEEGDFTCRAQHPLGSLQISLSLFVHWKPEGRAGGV
Put plainly: Ganglioside ELISA. It is filed as binding. To be noted: for ganglioside ELISA signal, Siglec-6 WT: Figure 2c, replicates. Here is the method: as §5, §6, §7

The target of a further assay is Siglec-1-Fc WT (Homo sapiens, UniProt Q9BZZ2). The experiment in a line: Ganglioside ELISA. To be noted: Figure 2c, replicates. It counts as binding. Here is the method: as §5, §6, §7
Sequence of Siglec-1-Fc WT (Q9BZZ2 20-136 limits assumed): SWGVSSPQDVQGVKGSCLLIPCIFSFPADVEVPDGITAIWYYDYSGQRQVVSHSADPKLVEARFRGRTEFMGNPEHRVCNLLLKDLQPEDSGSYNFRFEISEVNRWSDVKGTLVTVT
On the technique in general: In an ELISA, binding on a coated surface is turned into a signal by an enzyme label.

For the next assay, the target named is T4, Siglec-7-Fc R124A (Homo sapiens, UniProt Q9Y286, R124A).
T4 construct: the Siglecs as Fc chimeras; made in house; host or cells: WT CHO cells
T4 sequence (Q9Y286 19-353 R124A limits assumed): as the sequence (Q9Y286 19-353 limits assumed) above, with R106A counted along it
The experiment in a line: Ganglioside ELISA. To be noted: Figure 2c, replicates. It is filed as binding. Here is the method: as §5, §6, §7

For a further assay, the target named is T5, R122A Siglec-6-Fc (Homo sapiens, UniProt O43699, R122A).
T5 construct: the Siglecs as Fc chimeras; made in house; host or cells: WT CHO cells
T5 sequence (O43699 27-347 R122A limits assumed): as the sequence (O43699 27-347 limits assumed) above, with R96A counted along it
Put plainly: Ganglioside ELISA. It counts as binding. The following applies: Figure 2c, replicates. Here is the method:
as §5, §6, §7

Several values for one entry are separate records, joined by “and”; a condition that tells them apart may be missing. Identical values can stand only once.

T1 sequence (Q9BZZ2 20-1709): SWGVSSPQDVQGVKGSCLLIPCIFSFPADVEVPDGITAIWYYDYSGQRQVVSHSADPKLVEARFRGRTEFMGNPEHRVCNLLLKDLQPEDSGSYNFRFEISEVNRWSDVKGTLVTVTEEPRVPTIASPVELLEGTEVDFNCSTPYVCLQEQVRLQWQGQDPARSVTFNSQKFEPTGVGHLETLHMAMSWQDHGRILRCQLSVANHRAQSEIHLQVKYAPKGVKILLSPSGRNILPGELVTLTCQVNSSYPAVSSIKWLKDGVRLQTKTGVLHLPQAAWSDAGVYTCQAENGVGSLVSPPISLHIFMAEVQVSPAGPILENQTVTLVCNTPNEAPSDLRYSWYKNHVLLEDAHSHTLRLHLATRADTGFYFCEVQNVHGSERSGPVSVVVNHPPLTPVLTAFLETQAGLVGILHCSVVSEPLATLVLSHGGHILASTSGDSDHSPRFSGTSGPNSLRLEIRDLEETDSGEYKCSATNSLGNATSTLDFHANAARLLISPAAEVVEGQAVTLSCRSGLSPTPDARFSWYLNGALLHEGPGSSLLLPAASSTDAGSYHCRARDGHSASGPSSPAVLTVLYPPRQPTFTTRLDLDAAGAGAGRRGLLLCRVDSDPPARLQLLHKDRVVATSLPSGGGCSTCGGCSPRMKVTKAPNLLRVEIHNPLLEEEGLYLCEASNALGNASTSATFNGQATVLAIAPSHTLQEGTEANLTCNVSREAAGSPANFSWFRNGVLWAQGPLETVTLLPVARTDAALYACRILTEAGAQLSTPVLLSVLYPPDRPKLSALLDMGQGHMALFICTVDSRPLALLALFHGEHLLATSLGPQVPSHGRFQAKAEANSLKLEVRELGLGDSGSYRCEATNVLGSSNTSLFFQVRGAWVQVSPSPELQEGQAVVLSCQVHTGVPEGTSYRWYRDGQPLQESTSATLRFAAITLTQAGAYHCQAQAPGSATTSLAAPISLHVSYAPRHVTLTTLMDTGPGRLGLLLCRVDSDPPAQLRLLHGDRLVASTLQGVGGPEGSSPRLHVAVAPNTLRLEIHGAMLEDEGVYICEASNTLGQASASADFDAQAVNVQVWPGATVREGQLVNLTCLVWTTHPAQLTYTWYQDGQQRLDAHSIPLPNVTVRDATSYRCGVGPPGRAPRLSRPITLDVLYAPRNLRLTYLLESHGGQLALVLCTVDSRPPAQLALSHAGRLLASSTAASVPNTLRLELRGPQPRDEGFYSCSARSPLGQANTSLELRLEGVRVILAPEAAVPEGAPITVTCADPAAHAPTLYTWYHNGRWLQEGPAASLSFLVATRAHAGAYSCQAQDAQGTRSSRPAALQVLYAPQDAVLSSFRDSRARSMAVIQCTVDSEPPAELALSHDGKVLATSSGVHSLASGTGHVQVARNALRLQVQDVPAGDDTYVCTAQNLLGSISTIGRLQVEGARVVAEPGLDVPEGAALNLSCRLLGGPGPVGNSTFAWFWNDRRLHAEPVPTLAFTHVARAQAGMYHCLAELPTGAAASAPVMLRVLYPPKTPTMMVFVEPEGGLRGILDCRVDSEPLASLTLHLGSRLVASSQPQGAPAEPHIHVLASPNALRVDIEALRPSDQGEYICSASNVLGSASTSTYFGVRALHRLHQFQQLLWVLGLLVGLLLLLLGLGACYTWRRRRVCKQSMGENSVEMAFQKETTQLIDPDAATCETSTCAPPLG

With GM1, the “Binding of liposomes with increasing ganglioside content against Siglec-1 CHO cells (Fig. 1c)” value was 0.02 at WT Siglec-1 CHO cells (0.0187 Ligand/nm2); 0.13 (2×) and 0.12 (2×) at WT Siglec-1 CHO cells (0.0373 Ligand/nm2); 0.26 and 0.28 and 0.27 (2×) at WT Siglec-1 CHO cells (0.056 Ligand/nm2); 0.26 and 0.25 and 0.27 and 0.28 on WT Siglec-1 CHO cells (0.0933 Ligand/nm2); 0.19 and 0.18 (2×) and 0.16 at WT Siglec-1 CHO cells (0.187 Ligand/nm2); 0.08 (3×) and 0.07 on WT Siglec-1 CHO cells (0.373 Ligand/nm2). Also, the “Liposome binding to Siglec-1-expressing CHO cells in the cell assay (Fig. 1f)” value on WT Siglec-1 CHO cells (3% glycolipid in liposome) is 926 and 882 and 896; at WT Siglec-1 CHO cells (20% glycolipid in liposome) it was 316 and 299 and 296. Further, the “GM1 liposome binding to Siglec-1 CHO cells, flow cytometry (Fig. 1b)” value on WT Siglec-1 CHO cells (0.2 mol% PEG45–DSPE) was 1640 and 1691 and 1719 and 1798; on WT Siglec-1 CHO cells (0.5 mol% PEG45–DSPE), 1529 and 1675 and 1687 and 1576 and 1551; on WT Siglec-1 CHO cells (1 mol% PEG45–DSPE), 687 and 675 and 684 and 712 and 741; on WT Siglec-1 CHO cells (2 mol% PEG45–DSPE), 106 and 105 and 107 and 111 and 113; at WT Siglec-1 CHO cells (5 mol% PEG45–DSPE), 79 and 80 and 82 and 81. For the same substance, the “log10(MFI AF647) of GLL relative to log10(MFI AF647) of the same GLL against UT CHO cells (Fig. 2a)” value was 0.34 and 0.29 and 0.27 and 0.31 at WT Siglec-1 CHO cells; 0.07 and -0.03 (2×) and -0.01 in assay [1]. Also, the “binding to WT Siglec-1 CHO cells (in words)” value at WT Siglec-1 CHO cells (cell assay) is “No differences in binding”. For the same substance, the “ganglioside content threshold above which GLL binding to Siglec-1 CHO cells decreased” value at WT Siglec-1 CHO cells was 1–3 mol%. Also, at Siglec-7-Fc WT, the “ganglioside ELISA signal, Siglec-7 WT” value was 0.04 and 0.05 and 0.01 and 0.03. Moreover, the “ganglioside ELISA signal, Siglec-6 WT” value at Siglec-6-Fc WT is -0.03 and -0.04 and -0.05 and -0.02. The “ELISA recognition of adsorbed ganglioside by Siglec-6 (in words)” value on Siglec-6-Fc WT (ganglioside adsorbed to microplate, outside a bilayer) is on record as “did not recognize”. Further, the “ganglioside ELISA signal, Siglec-1 WT” value on Siglec-1-Fc WT was 0.39 and 0.55 and 0.5 and 0.54. Also, the “ganglioside ELISA signal, Siglec-7 R” value on Siglec-7-Fc R124A is 0 and -0.01 and 0.03. The “ganglioside ELISA signal, Siglec-6 R” value at R122A Siglec-6-Fc is 0.02 and 0.03.

As for GM2, the “Binding of liposomes with increasing ganglioside content against Siglec-1 CHO cells (Fig. 1c)” value on WT Siglec-1 CHO cells (0.00187 Ligand/nm2) is -0.01; on WT Siglec-1 CHO cells (0.00933 Ligand/nm2) it was 0.11 (2×) and 0.13 and 0.16; on WT Siglec-1 CHO cells (0.0187 Ligand/nm2) it was 1.01 and 0.97 and 1 and 1.02; at WT Siglec-1 CHO cells (0.056 Ligand/nm2), 0.8 and 0.79 and 0.78 (2×); at WT Siglec-1 CHO cells (0.0933 Ligand/nm2), 0.59 and 0.57 and 0.55 (2×); at WT Siglec-1 CHO cells (0.373 Ligand/nm2), 0.24 and 0.22 (3×). In addition, the “log10(MFI AF647) of GLL relative to log10(MFI AF647) of the same GLL against UT CHO cells (Fig. 2a)” value at WT Siglec-1 CHO cells was 1.23 and 1.19 and 1.21 and 1.2; in assay [1] it was 0.1 and 0.05 (2×) and 0.06. In addition, the “ganglioside content threshold above which GLL binding to Siglec-1 CHO cells decreased” value at WT Siglec-1 CHO cells is reported as 1–3 mol%. Further, the “ganglioside ELISA signal, Siglec-7 WT” value on Siglec-7-Fc WT is 0.12 and 0.09 and 0.1 and 0.06. For the same substance, the “ganglioside ELISA signal, Siglec-6 WT” value on Siglec-6-Fc WT was 0 and 0.04 and 0.02 and 0.03. For the same substance, the “ganglioside ELISA signal, Siglec-1 WT” value at Siglec-1-Fc WT was 0.89 and 1.09 and 1.03 and 1.06. Also, the “ganglioside ELISA signal, Siglec-7 R” value at Siglec-7-Fc R124A is -0.01 and 0 and -0.02. At R122A Siglec-6-Fc, the “ganglioside ELISA signal, Siglec-6 R” value was 0.04 and 0.05 and 0.06 and 0.07.
